Measured values as given in patent US9096593B2, “Compounds and methods for kinase modulation, and indications therefor” (Plexxikon Inc., priority 2009, dated 2015).
Like-named read-outs stand apart in the source and are kept apart here.

Tests used:
[1] = biological target: Fms kinase (Homo sapiens (Human), UniProt P07333); assay: Fms kinase biochemical activity assay (AlphaScreen, biotin-(E4Y)10 phosphorylation)
In short: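 Recombinant human Fms phosphorylating 30 nM biotin-(E4Y)10 with 100 μM ATP (1 ng/well enzyme) in Hepes pH 7.5 buffer with Mg2+/Mn2+, 5% DMSO, 20 min at 30 °C. Phosphotyrosine detected by AlphaScreen streptavidin donor/PY20 acceptor beads; IC50 from signal versus compound concentration.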

[2] = biological target: BCR-KIT/BaF3 cells (Homo sapiens, UniProt P10721); assay: BCR-KIT/BaF3 cell proliferation assay (ATPlite); assay type: cell-based; settings: read-out: BCR/BaF3 (IC50 μM) Kit
In short: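 BCR-KIT/BaF3 cells plated at 10,000/well in G418-containing medium without IL-3/WEHI; MV-4-11 at 25,000/well in medium with 10% FBS. Compound given as 8-point 1:3 titration, top 10 μM final, 3 days at 37 °C. Viability read as ATPlite luminescence; IC50 from concentration curve.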

[3] = read-out: Biochemical activity (IC50 μM) Fms
[4] = 100 μM ATP, read-out: Biochemical (IC50 μM) Fms

Sequence of Fms kinase (P07333 20-972): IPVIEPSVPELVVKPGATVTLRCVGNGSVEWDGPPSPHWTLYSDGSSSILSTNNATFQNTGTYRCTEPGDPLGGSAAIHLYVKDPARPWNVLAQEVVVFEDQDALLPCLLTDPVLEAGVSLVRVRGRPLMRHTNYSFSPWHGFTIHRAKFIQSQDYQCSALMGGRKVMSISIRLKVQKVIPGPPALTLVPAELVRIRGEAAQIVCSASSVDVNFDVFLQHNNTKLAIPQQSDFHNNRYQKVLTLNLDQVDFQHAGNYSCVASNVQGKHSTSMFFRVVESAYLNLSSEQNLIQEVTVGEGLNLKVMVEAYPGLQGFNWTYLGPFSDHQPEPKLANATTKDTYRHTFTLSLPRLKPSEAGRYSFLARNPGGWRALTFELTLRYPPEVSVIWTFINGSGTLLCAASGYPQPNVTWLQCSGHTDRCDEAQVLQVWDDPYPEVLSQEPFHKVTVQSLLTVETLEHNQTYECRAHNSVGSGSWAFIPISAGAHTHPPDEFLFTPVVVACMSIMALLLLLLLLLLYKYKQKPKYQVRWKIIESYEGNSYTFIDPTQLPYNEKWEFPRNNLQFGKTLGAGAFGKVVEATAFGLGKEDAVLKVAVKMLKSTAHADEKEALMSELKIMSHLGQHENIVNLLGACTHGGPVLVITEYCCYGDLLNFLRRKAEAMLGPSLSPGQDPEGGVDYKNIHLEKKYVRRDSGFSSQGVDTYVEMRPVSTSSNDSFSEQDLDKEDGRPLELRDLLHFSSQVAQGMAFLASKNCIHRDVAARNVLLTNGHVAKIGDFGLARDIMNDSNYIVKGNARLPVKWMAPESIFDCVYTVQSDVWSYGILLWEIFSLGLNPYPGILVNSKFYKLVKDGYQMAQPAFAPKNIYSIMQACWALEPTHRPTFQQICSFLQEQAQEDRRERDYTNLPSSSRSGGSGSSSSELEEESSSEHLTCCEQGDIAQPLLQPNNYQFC
Sequence of BCR-KIT/BaF3 cells (P10721 26-976 limits assumed, change not shown): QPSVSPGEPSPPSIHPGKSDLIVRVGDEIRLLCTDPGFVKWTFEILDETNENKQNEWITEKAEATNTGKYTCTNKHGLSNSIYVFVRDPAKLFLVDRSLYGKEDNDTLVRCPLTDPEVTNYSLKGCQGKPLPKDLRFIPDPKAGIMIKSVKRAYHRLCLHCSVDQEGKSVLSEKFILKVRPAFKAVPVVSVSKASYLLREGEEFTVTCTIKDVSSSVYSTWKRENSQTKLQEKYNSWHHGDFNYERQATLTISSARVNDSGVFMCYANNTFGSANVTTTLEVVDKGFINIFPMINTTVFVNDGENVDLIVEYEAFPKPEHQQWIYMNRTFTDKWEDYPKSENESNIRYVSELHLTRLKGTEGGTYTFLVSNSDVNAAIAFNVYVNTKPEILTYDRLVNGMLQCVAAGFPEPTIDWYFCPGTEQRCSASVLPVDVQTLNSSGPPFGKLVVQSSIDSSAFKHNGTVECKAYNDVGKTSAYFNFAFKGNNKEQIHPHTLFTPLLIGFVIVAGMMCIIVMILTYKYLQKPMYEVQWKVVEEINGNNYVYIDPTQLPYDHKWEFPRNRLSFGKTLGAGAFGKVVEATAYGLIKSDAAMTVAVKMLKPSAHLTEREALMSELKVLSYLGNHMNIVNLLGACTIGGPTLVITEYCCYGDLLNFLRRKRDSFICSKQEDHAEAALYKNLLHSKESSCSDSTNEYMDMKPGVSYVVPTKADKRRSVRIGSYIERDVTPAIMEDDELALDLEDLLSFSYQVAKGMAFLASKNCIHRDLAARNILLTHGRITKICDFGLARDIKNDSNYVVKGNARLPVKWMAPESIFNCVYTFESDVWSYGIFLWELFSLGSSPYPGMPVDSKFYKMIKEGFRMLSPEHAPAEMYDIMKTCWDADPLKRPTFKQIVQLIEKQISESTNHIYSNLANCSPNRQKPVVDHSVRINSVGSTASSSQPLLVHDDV

Compound | Biochemical activity selectivity (Kit IC50/Fms IC50) [1] | IC50 [1, 3] [µM] | IC50 [2] [µM] | IC50 [1, 4] [µM]
Fc1cncc(CNc2ccc(Cc3c[nH]c4ncc(Cl)cc34)c(F)n2)c1 [Compound P-2001, [5-(5-Chloro-1H-pyrrolo[2,3-b]pyridin-3-ylmethyl)-6-fluoro-pyridin-2-yl]-(5-fluoro-pyridin-3-ylmethyl)-amine] | >20 | < 0.1 | > 0.1 | 
Cc1cnc2[nH]cc(Cc3cnc(NCc4ccc(Cl)nc4)nc3)c2c1 [Compound P-2078, (6-Chloro-pyridin-3-ylmethyl)-[5-(5-methyl-1H-pyrrolo[2,3-b]pyridin-3-ylmethyl)-pyrimidin-2-yl]-amine] | >20 | < 0.1 | > 0.1 | 
Cc1ccc(CNc2ccc(Cc3c[nH]c4ncc(C)cc34)c(F)n2)nc1 [Compound P-2131, [6-Fluoro-5-(5-methyl-1H-pyrrolo[2,3-b]pyridin-3-ylmethyl)-pyridin-2-yl]-(5-methyl-pyridin-2-ylmethyl)-amine] | >20 | < 0.1 | > 0.1 | 
COc1ccc(CNc2ccc(Cc3c[nH]c4ncc(C)cc34)c(F)n2)cn1 [Compound P-2029, [6-Fluoro-5-(5-methyl-1H-pyrrolo[2,3-b]pyridin-3-ylmethyl)-pyridin-2-yl]-(6-methoxy-pyridin-3-ylmethyl)-amine] | >20 | < 0.1 | > 0.1 | < 0.1
Cc1cnc2[nH]cc(Cc3ccc(NCc4ccc(C(F)(F)F)nc4)nc3F)c2c1 [Compound P-2031, [6-Fluoro-5-(5-methyl-1H-pyrrolo[2,3-b]pyridin-3-ylmethyl)-pyridin-2-yl]-(6-trifluoromethyl-pyridin-3-ylmethyl)-amine] | <20 | < 0.1 | > 0.1 | < 0.1
